Measurements taken from patent publication US4048299A, “Anticaries confectionaries and oral health products” (William Wrigley, Jr. Co., priority 1970, dated 1977).

Assays:
Streptococcus spp. KI-R = experiment: Acid production inhibition by aldehydes in product vehicles, broth-tube technique; format: cell-based; settings: 1 to 5 percent aldehyde
[1] = system: Lactobacillus casei ATCC 4646; experiment: as above; format: cell-based; settings: 1 to 5 percent aldehyde
[2] = system: Mixed human oral microorganisms; experiment: as above; format: cell-based; settings: 1 to 5 percent aldehyde
[3] = In vivo caries evaluation, laboratory animals (summary); settings: one percent level in diet
From the text: (§1) Standard laboratory techniques were used to complie the data presented. In each case the aldehyde was incorporated into each specimen's food in a one percent, by weight, quantity, over a period of several weeks. In all cases, caries reduction was noted.
(§2) The aldehydes tested in vivo were pyruvaldehyde, d,1-glyceraldehyde, crystalline dimer, glycolaldehyde, octanaldehyde, nonanaldehyde, decanaldehyde, undecylenic aldehyde, and lauric aldehyde. The polyaldehydes tested were dialdehyde starch, dialdehyde starch 50 percent oxidized, dialdehyde starch 90 percent oxidized, and dialdehyde galactomannan gum.

[4] = system: Mixed human oral microorganisms; experiment: Growth inhibition by aldehydes in product vehicles, pour-plate technique; format: cell-based; settings: 1 to 5 percent aldehyde
Procedure, shortened: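 Aldehydes (1 to 5 percent by weight) were formulated into syrups, candies, mouthwash, toothpaste or toothpowder, added directly or as aqueous extracts to medium without a carbon source mixed 1:1 with filter-sterilized human saliva. Sugar came from the product or added sucrose. Growth over up to 24 hours was read by pour-plate count.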

[5] = In vivo caries evaluation, Osborne-Mendel strain 1 rat; design: species or system rat (Osborne-Mendel strain 1); Caries Score, Mean Incidence / Caries Score, Mean Extent: scale not given here; settings: Table I, 90 days
From the text: as §1, §2
^(a) Agents were incorporated in the diet at a 1 percent level.

[6] = in compressed candy tablet, 2 h incubation
[7] = in compressed candy tablet, 5 h incubation
[8] = in compressed candy tablet, 24 h incubation
[9] = in dextrose syrup, 2 h incubation
[10] = in dextrose syrup, 5 h incubation
[11] = in dextrose syrup, 24 h incubation
[12] = in sucrose syrup, 2 h incubation
[13] = in sucrose syrup, 5 h incubation
[14] = in sucrose syrup, 24 h incubation
[15] = in tooth powder (aqueous extract), 2 h incubation
[16] = in tooth powder (aqueous extract), 5 h incubation
[17] = in tooth powder (aqueous extract), 24 h incubation
[18] = in toothpaste (aqueous extract), 2 h incubation
[19] = in toothpaste (aqueous extract), 5 h incubation
[20] = in toothpaste (aqueous extract), 24 h incubation
[21] = Student's test, 95 percent confidence limit

In the case of `O=CCO` [Glycolaldehyde], the “Acid Production Inhibition” value (Streptococcus spp. KI-R; [6]) is reported as 0 Per Cent, the “Acid Production Inhibition” value (Streptococcus spp. KI-R; [7]) is reported as 0 Per Cent and the “Acid Production Inhibition” value (Streptococcus spp. KI-R; [8]) is reported as 73 Per Cent. The “Acid Production Inhibition” value (Streptococcus spp. KI-R; [9]) was 57 Per Cent, the “Acid Production Inhibition” value (Streptococcus spp. KI-R; [10]) was 81 Per Cent and the “Acid Production Inhibition” value (Streptococcus spp. KI-R; [11]) was 77 Per Cent. The “Acid Production Inhibition” value (Streptococcus spp. KI-R; in mouthwash, 2 h incubation) was 0 Per cent, the “Acid Production Inhibition” value (Streptococcus spp. KI-R; in mouthwash, 5 h incubation) was 0 Per cent and the “Acid Production Inhibition” value (Streptococcus spp. KI-R; in mouthwash, 24 h incubation) was 78 Per cent. The “Acid Production Inhibition” value (Streptococcus spp. KI-R; [12]) was 19 Per cent, the “Acid Production Inhibition” value (Streptococcus spp. KI-R; [13]) was 85 Per cent and the “Acid Production Inhibition” value (Streptococcus spp. KI-R; [14]) was 84 Per cent. The “Acid Production Inhibition” value (Streptococcus spp. KI-R; [15]) was 0 Per cent, the “Acid Production Inhibition” value (Streptococcus spp. KI-R; [16]) was 0 Per cent and the “Acid Production Inhibition” value (Streptococcus spp. KI-R; [17]) was 0 Per cent. For the same compound, the “Acid Production Inhibition” value (Streptococcus spp. KI-R; [18]) was 0 Per cent, the “Acid Production Inhibition” value (Streptococcus spp. KI-R; [19]) was 0 Per cent and the “Acid Production Inhibition” value (Streptococcus spp. KI-R; [20]) was 0 Per cent. The “Acid Production Inhibition” value [1, 6] was 0 Per Cent, the “Acid Production Inhibition” value [1, 7] was 0 Per Cent and the “Acid Production Inhibition” value [1, 8] was 64 Per Cent. The “Acid Production Inhibition” value [1, 9] was 33 Per Cent, the “Acid Production Inhibition” value [1, 10] was 3 Per Cent and the “Acid Production Inhibition” value [1, 11] was 85 Per Cent. The “Acid Production Inhibition” value [1, 12] was 0 Per cent, the “Acid Production Inhibition” value [1, 13] was 0 Per cent and the “Acid Production Inhibition” value [1, 14] was 86 Per cent. For the same compound, the “Acid Production Inhibition” value [1, 15] was 0 Per cent, the “Acid Production Inhibition” value [1, 16] was 0 Per cent and the “Acid Production Inhibition” value [1, 17] was 73 Per cent. The “Acid Production Inhibition” value [1, 18] was 0 Per cent, the “Acid Production Inhibition” value [1, 19] was 0 Per cent and the “Acid Production Inhibition” value [1, 20] was 0 Per cent. For the same compound, the “Acid Production Inhibition” value [2, 6] was 0 Per Cent, the “Acid Production Inhibition” value [2, 7] was 84 Per Cent and the “Acid Production Inhibition” value [2, 8] was 72 Per Cent. For the same compound, the “Acid Production Inhibition” value [2, 9] was 15 Per Cent, the “Acid Production Inhibition” value [2, 10] was 87 Per Cent and the “Acid Production Inhibition” value [2, 11] was 87 Per Cent. The “Acid Production Inhibition” value ([2]; in mouthwash, 2 h incubation) was 0 Per cent, the “Acid Production Inhibition” value ([2]; in mouthwash, 5 h incubation) was 87 Per cent and the “Acid Production Inhibition” value ([2]; in mouthwash, 24 h incubation) was 80 Per cent. For the same compound, the “Acid Production Inhibition” value [2, 12] was 44 Per cent, the “Acid Production Inhibition” value [2, 13] was 90 Per cent and the “Acid Production Inhibition” value [2, 14] was 85 Per cent. For the same compound, the “Acid Production Inhibition” value [2, 15] was 0 Per cent, the “Acid Production Inhibition” value [2, 16] was 82 Per cent and the “Acid Production Inhibition” value [2, 17] was 77 Per cent. For the same compound, the “Acid Production Inhibition” value [2, 18] was 0 Per cent, the “Acid Production Inhibition” value [2, 19] was 0 Per cent and the “Acid Production Inhibition” value [2, 20] was 0 Per cent. The “Anticaries effect in laboratory animals” value [3] was “significant anticaries effects”, the “Growth Inhibition” value [4, 6] was 99.3 Per Cent and the “Growth Inhibition” value [4, 7] was 100 Per Cent. The “Growth Inhibition” value [4, 8] was 100 Per Cent, the “Growth Inhibition” value [4, 9] was 99 Per Cent and the “Growth Inhibition” value [4, 10] was 100 Per Cent. For the same compound, the “Growth Inhibition” value [4, 11] was 91.4 Per Cent, the “Growth Inhibition” value ([4]; in mouthwash, 2 h incubation) was 99.7 Per cent and the “Growth Inhibition” value ([4]; in mouthwash, 5 h incubation) was 100 Per cent. For the same compound, the “Growth Inhibition” value ([4]; in mouthwash, 24 h incubation) was 99.90 Per cent, the “Growth Inhibition” value [4, 12] was 98 Per cent and the “Growth Inhibition” value [4, 13] was greater than 99.99 Per cent. For the same compound, the “Growth Inhibition” value [4, 14] was greater than 99 Per cent, the “Growth Inhibition” value [4, 15] was “N.S” and the “Growth Inhibition” value [4, 16] was 99.97 Per cent. The “Growth Inhibition” value [4, 17] was 100 Per cent, the “Growth Inhibition” value [4, 18] was “N.S” and the “Growth Inhibition” value [4, 19] was “N.S”. The “Growth Inhibition” value [4, 20] was 100 Per cent, the “Caries Score, Mean Incidence” value ([5]; 1 percent in diet, RCD control 23.3 (pyruvaldehyde test), 12.85 (glycolaldehyde test)) was 5.53 and the “Caries Score, Mean Extent” value ([5]; 1 percent in diet, RCD control 64.8 (pyruvaldehyde test), 35.45 (glycolaldehyde test)) was 13.19. For the same compound, the “Caries Extent Reduction, statistical evaluation” value [5, 21] was “Significant” and the “Caries Incidence Reduction, statistical evaluation” value [5, 21] was “Significant”.
